According to PMC11237612, “Mutation of the peptide-regulated transcription factor ComR for amidated peptide specificity and heterologous function in Lactiplantibacillus plantarum WCFS1” (Microbiology Spectrum, 2024):

System: S. thermophilus ComR containing five mutations (R92G, V205A, S248G, S289K, and I290T)
Experiment: GFP signal in E. coli expressing five-mutation ComR
Type: cell-based
Settings: 100 µM peptide, GFP signal (Fig. S3)
Excerpt: The selection of mutant ComRs with altered specificity highlighted the utility of the screening system built in E. coli. We attempted to further validate this screening system by cloning a version of S. thermophilus ComR containing five mutations (R92G, V205A, S248G, S289K, and I290T), which was reported to have altered specificity for the 8 amino-acid long XIP from S. vestibularis (VPFFMIYY) ([20]).
ComR sensor circuits were constructed on plasmid pACYC184 (American Type Culture Collection #37033) such that ComR activation promoted GFP expression. This was done by assembling synthetic dsDNA fragments (Integrated DNA Technology) using NEBuilder® HiFi DNA Assembly Master Mix (NEB, E2621S). The full sequence of plasmid pAC-J23107*-ComR, on which the ComR mutant library was made is included in supplemental materials. The ComR mutant (K100NNK) library was created by PCR amplifying all but the K100 codon and then assembling it with degenerate oligos (Integrated DNA Technology) using NEBuilder® HiFi DNA Assembly Master Mix (NEB, E2621S). […] Bacteria were incubated in a large radius shaker (Eppendorf S441) at 37°C for 9 hours, then GFP fluorescence was read using a TECAN Spark 20M plate reader. […]

Sequence: VPFFMIYY [S. vestibularis XIP, 8 amino-acid long XIP from S. vestibularis (VPFFMIYY)]
- GFP signal of five-mutation ComR with S. vestibularis XIP: only a slight increase in GFP signal
